This assay has as its system PRCV. The assay is described as follows: PRCV infection of ST cells (RT-qPCR, TCID50, western blot, IFA). The format is cell-based, porcine respiratory coronavirus. To be noted: PRCV 0.1 MOI; for PRCV N level, western blot, relative to WT without PM (=1): PM 10 mM, 16 h. On the procedure: Fig 1 PM inhibits TGEV and PRCV infection in ST cells. (A) A cytotoxicity assay of PM in ST cells. ST cells cultured in a 96-well plate were incubated with different concentrations of PM for 24 h, which was tested by Cell Counting Kit 8. (B) Time course for PM inhibiting TGEV or PRCV or PEDV infection assay. (C–F) The ST cells, pretreated with PM at the indicated concentrations for 1 h were infected with TGEV Miller (0.1 MOI) or PRCV (0.1 MOI) for 1 h and were again treated with PM at 37°C for 17 h. The cell samples were collected and examined by real-time quantitative PCR (RT-qPCR), TCID50, western blot (C and D), and immunofluorescence assay (IFA) (E and F), scale bar: 50 µm. (G) Vero-E6 cells were treated with indicated PM and infected with PEDV LJX 01/2014 according to the time course of Fig. 1B, which was detected by TCID50 and western blot. Results are presented as mean ± SD of data from three independent experiments. ns, no significant; **, P ≤ 0.01; ***, P ≤ 0.001.
Fig 3 PM inhibits TGEV and PRCV infection by potassium ion and molybdate synergy. (A and B) The ST cells, pretreated with potassium chloride (KCl) or sodium molybdate (Na2MoO4) at the indicated concentrations for 1 h were infected with TGEV Miller (0.1 MOI) for 1 h and were again treated with KCl or Na2MoO4 at 37°C for 17 h. The cell samples were measured by RT-qPCR. (C and D) ST cells were treated with PM (K2MoO4, 10 mM), KCl (20 mM), Na2MoO4 (10 mM), sodium chloride (NaCl, 10 mM), K2MoO4 (10 mM), and NaCl (20 mM) as well as Na2MoO4 (10 mM) and KCl (20 mM) for 1 h and then infected with TGEV Miller (0.1 MOI) or PRCV (0.1 MOI) for 17 h, which was determined by RT-qPCR and TCID50. Results are presented as mean ± SD of data from three independent experiments. ***, P ≤ 0.001; ns, no significance.
Total RNA was extracted using RNAiso reagent (TaKaRa, Japan, 9109) and reverse transcribed into cDNA using HiScript Q RT SuperMix for qPCR (Vazyme, China, R223-01), both of which followed the manufacturer’s recommendations. The TGEV and PRCV virus copy numbers were detected by the TaqMan probe-based RT-qPCR method developed previously in our laboratory ([59]). Relative qPCR was also performed using ChamQ SYBR qPCR master mix (Vazyme, China, Q311-02), and the results were calculated via the 2^-ΔΔCT method.
Fig. S8. PM inhibits PRCV infection by degrading APN via PIK3C3-mediated autophagy. (A-C) WT ST cells and PIK3C3 KO ST cells were treated with PM (10 mM) and infected with PRCV (0.1 MOI) for 16 h. Then the APN, PIK3C3, ATG14, BECN1, P62, PRCV N and LC3 were detected by western blot (A), and viral titers and PRCV N mRNA level were determined by TCID50 (B) and RT-qPCR (C) . (D-F) WT ST cells and PIK3C3 KO ST cells transfected with pCMV-Myc and pCMV-Myc-PIK3C3 respectively for 24 h were treated with PM (10 mM) and infected with PRCV (0.1 MOI) for 16 h. The APN, PIK3C3, P62, PRCV N and LC3 were determined by western blot (D). TCID50 (E) and RT-qPCR (F) were performed to detect viral titers and PRCV N m RNA level. All western blot results were calculated by Image J. Results are presented as mean ± SD of data from three independent experiments (also on this page, place not known: 6 8 10 12 Viral load(log copies/ul) *** 2 4 6 8 log10 TCID50/ml *** 6 8 10 12 + Viral load(log copies/ul) PIK3C3-Myc + - + + + *** *** 2 4 6 8 log10 TCID50/ml *** + + + + PIK3C3-Myc - - - + - + + + *** WT KO PM (C). WT KO PM PRCV PM - + + PRCV + + + WT PIK3C3 KO PIK3C3 PRCV PIK3C3-Myc - - - + PM - + + + PRCV + + + + WT PIK3C3 KO 0 0) […]
(In general: Quantitative PCR measures a nucleic acid by following its amplification.)

As for `[K+].[K+].[O]=[Mo](=[O])([O-])[O-]` [PM, potassium molybdate], the “PRCV N level, western blot, relative to WT without PM (=1)” value is, setting by setting: (Fig. S8A, PIK3C3 KO ST cells) 0.81; (Fig. S8A, WT ST cells) 0; (Fig. S8D, PIK3C3 KO ST cells with PIK3C3-Myc) 0; (Fig. S8D, PIK3C3 KO ST cells without PIK3C3-Myc) 0.78; (Fig. S8D, WT ST cells with pCMV-Myc) 0. The PRCV infection result (ST cells, PM 1 h pretreatment and 17 h after infection, RT-qPCR, TCID50, western blot, IFA) is listed as “effectively restricted”.
